For 14 substances, target mRNA knockdown results are on record in the OligoGym collection.

Several values for one entry are separate records, joined by “and”; a condition that tells them apart may be missing. Identical values can stand only once. HELM strings list units from the 5' end as sugar, base in round brackets, then linkage (d deoxyribose, r ribose, m 2'-O-methyl, p phosphodiester). Strings are as the collection lists them, not checked against the first reports. ss, as = sense and antisense strand; [lna] = locked nucleic acid (LNA); [una] = unlocked nucleic acid; [hna] = hexitol nucleic acid; [s4r] = 4'-thioribose; [fl2r] = 2'-fluoro
Further: test system not given here.

For this data set the following is noted: siRNA.
Substance “RNA1{r(U)p.m(U)p.r(A)p.r(A)p.r(G)p.r(G)p.r(A)p.r(G)p.r(A)p.r(A)p.r(G)p.r(C)p.r(U)p.r(G)p.r(A)p.r(C)p.r(G)p.r(G)p.r(C)p.r(T)p.r(T)}|RNA2{r(G)p.r(C)p.r(C)p.r(G)p.r(U)p.m(C)p.r(A)p.r(G)p.r(C)p.r(U)p.r(U)p.r(C)p.r(U)p.r(C)p.r(C)p.r(U)p.m(U)p.r(A)p.r(A)p.r(T)p.r(T)}$$$RNA1{StrandType:ss}|RNA2{StrandType:as}$” had a target mRNA knockdown of 83%.
The same measure for “RNA1{r(C)p.r(U)p.r(U)p.r(A)p.r(C)p.r(G)p.r(C)p.r(U)p.r(G)p.r(A)p.r(G)p.r(U)p.r(A)p.r(C)p.r(U)p.r(U)p.r(C)p.r(G)p.r(A)p.r(T)p.r(T)}|RNA2{r(U)p.r(C)p.r(G)p.r(A)p.r(A)p.r(G)p.r(U)p.r(A)p.[lna](C)p.r(U)p.r(C)p.r(A)p.r(G)p.r(C)p.r(G)p.r(U)p.r(A)p.r(A)p.r(G)p.r(T)p.r(T)}$$$RNA1{StrandType:ss}|RNA2{StrandType:as}$”: 85%; for “RNA1{r(G)p.[hna](A)p.r(C)p.r(G)p.r(U)p.r(A)p.r(A)p.[hna](A)p.r(C)p.r(G)p.r(G)p.r(C)p.r(C)p.[hna](A)p.r(C)p.r(A)p.[hna](A)p.r(G)p.r(U)p.r(U)p.r(C)}|RNA2{r(A)p.r(C)p.r(U)p.r(U)p.r(G)p.r(U)p.r(G)p.r(G)p.r(C)p.r(C)p.r(G)p.r(U)p.r(U)p.r(U)p.r(A)p.r(C)p.r(G)p.r(U)p.r(C)p.r(G)p.r(C)}$$$RNA1{StrandType:ss}|RNA2{StrandType:as}$”: 84.9%.
The value for “RNA1{r(A)p.r(A)p.r(A)p.r(C)p.[fl2r](C)p.[fl2r](A)p.r(G)p.r(G)p.r(A)p.r(A)p.r(G)p.r(G)p.r(G)p.r(G)p.r(A)p.r(A)p.r(A)p.r(U)p.r(C)p.r(T)p.r(T)}|RNA2{r(G)p.r(A)p.r(U)p.r(U)p.r(U)p.r(C)p.r(C)p.r(C)p.r(C)p.r(U)p.r(U)p.r(C)p.r(C)p.r(U)p.r(G)p.r(G)p.r(U)p.r(U)p.r(U)p.r(T)p.r(T)}$$$RNA1{StrandType:ss}|RNA2{StrandType:as}$” was 64%.
The value for “RNA1{r(G)p.r(U)p.r(A)p.r(U)p.r(G)p.r(A)p.r(C)p.r(C)p.r(G)p.r(A)p.r(C)p.r(U)p.r(A)p.r(C)p.r(G)p.r(C)p.r(G)p.r(U)p.r(A)p.r(T)p.r(T)}|RNA2{r(U)p.[una](U)p.r(C)p.r(A)p.r(G)p.r(U)p.r(G)p.r(U)p.r(G)p.r(A)p.r(U)p.r(G)p.r(A)p.r(C)p.r(A)p.r(C)p.r(U)p.r(U)p.r(G)p.r(T)p.r(T)}$$$RNA1{StrandType:ss}|RNA2{StrandType:as}$” was 0% and 2%; that for “RNA1{[s4r](A)p.[s4r](A)p.[s4r](A)p.[s4r](C)p.r(A)p.r(U)p.r(G)p.r(C)p.r(A)p.r(G)p.r(A)p.r(A)p.r(A)p.r(A)p.r(U)p.[s4r](A)p.[s4r](C)p.[s4r](C)p.[s4r](U)p.r(T)p.r(T)}|RNA2{[s4r](C)p.[s4r](A)p.r(G)p.r(C)p.r(A)p.r(U)p.r(U)p.r(U)p.r(U)p.r(C)p.r(U)p.r(G)p.r(C)p.r(A)p.r(U)p.r(G)p.r(U)p.[s4r](U)p.[s4r](U)p.r(T)p.r(T)}$$$RNA1{StrandType:ss}|RNA2{StrandType:as}$” was 80.8%.
In the case of “RNA1{[fl2r](A)p.r(G)p.[fl2r](A)p.r(G)p.[fl2r](A)p.r(G)p.[fl2r](G)p.r(U)p.[fl2r](G)p.r(G)p.[fl2r](A)p.r(G)p.[fl2r](G)p.r(U)p.[fl2r](A)p.r(U)p.[fl2r](C)p.r(U)p.[fl2r](C)p.r(T)p.r(T)}|RNA2{r(G)p.[fl2r](A)p.r(G)p.[fl2r](A)p.r(U)p.[fl2r](A)p.r(C)p.r(C)p.r(U)p.r(C)p.r(C)p.[fl2r](A)p.r(C)p.r(C)p.r(U)p.r(C)p.r(U)p.r(C)p.r(U)p.r(T)p.r(T)}$$$RNA1{StrandType:ss}|RNA2{StrandType:as}$”, the target mRNA knockdown turned out to be 68%.
“RNA1{m(A)p.r(A)p.m(U)p.r(A)p.m(A)p.r(G)p.m(C)p.r(A)p.m(G)p.r(C)p.m(U)p.r(C)p.m(G)p.r(C)p.m(G)p.r(C)p.m(U)p.r(C)p.m(C)p.r(T)p.r(T)}|RNA2{r(G)p.r(G)p.m(A)p.r(G)p.r(C)p.r(G)p.r(C)p.r(G)p.m(A)p.r(G)p.r(C)p.r(U)p.r(G)p.r(C)p.r(U)p.r(U)p.m(A)p.r(U)p.r(U)p.r(T)p.r(T)}$$$RNA1{StrandType:ss}|RNA2{StrandType:as}$” showed a target mRNA knockdown of 32%.
On to “RNA1{r(C)p.[fl2r](U)p.r(A)p.r(G)p.r(A)p.r(G)p.r(G)p.r(A)p.r(U)p.r(C)p.r(U)p.[fl2r](U)p.r(G)p.r(A)p.r(A)p.r(G)p.r(A)p.r(C)p.r(C)p.r(T)p.r(T)}|RNA2{r(G)p.r(G)p.r(U)p.r(C)p.r(U)p.r(U)p.[fl2r](C)p.r(A)p.r(A)p.r(G)p.r(A)p.r(U)p.r(C)p.r(C)p.r(U)p.r(C)p.[fl2r](U)p.r(A)p.r(G)p.r(T)p.r(T)}$$$RNA1{StrandType:ss}|RNA2{StrandType:as}$”, for which the target mRNA knockdown was 67% and 91%.
The value for “RNA1{r(A)p.r(A)p.r(C)p.r(C)p.[fl2r](C)p.r(A)p.r(C)p.r(C)p.r(A)p.[fl2r](C)p.r(A)p.r(G)p.r(C)p.[fl2r](U)p.r(A)p.r(G)p.r(A)p.r(A)p.r(C)p.r(U)p.r(U)}|RNA2{r(G)p.r(U)p.r(U)p.r(C)p.[fl2r](U)p.r(A)p.r(G)p.r(C)p.[fl2r](U)p.r(G)p.[fl2r](U)p.r(G)p.r(G)p.[fl2r](U)p.r(G)p.r(G)p.r(G)p.r(U)p.r(U)p.r(U)p.r(U)}$$$RNA1{StrandType:ss}|RNA2{StrandType:as}$” was 79%; that for “RNA1{r(A)p.r(A)p.r(G)p.r(G)p.r(A)p.r(A)p.r(C)p.r(G)p.r(G)p.r(G)p.r(G)p.r(A)p.m(C)p.r(A)p.r(C)p.r(U)p.m(U)p.r(A)p.r(C)p.r(T)p.r(T)}|RNA2{r(G)p.m(U)p.r(A)p.r(A)p.r(G)p.m(U)p.r(G)p.r(U)p.r(C)p.r(C)p.r(C)p.r(C)p.r(G)p.r(U)p.r(U)p.r(C)p.r(C)p.r(U)p.r(U)p.r(T)p.r(T)}$$$RNA1{StrandType:ss}|RNA2{StrandType:as}$” was 35%; that for “RNA1{r(C)p.r(G)p.r(U)p.r(A)p.r(C)p.r(G)p.r(C)p.r(G)p.r(G)p.r(A)p.r(A)p.r(U)p.r(A)p.r(C)p.r(U)p.r(U)p.r(C)p.r(G)p.r(A)p.r(T)p.r(T)}|RNA2{[s4r](U)p.[s4r](C)p.r(G)p.r(A)p.r(A)p.r(G)p.[s4r](U)p.r(A)p.[s4r](U)p.[s4r](U)p.[s4r](C)p.[s4r](C)p.r(G)p.[s4r](C)p.r(G)p.[s4r](U)p.r(A)p.[s4r](C)p.r(G)p.r(T)p.r(T)}$$$RNA1{StrandType:ss}|RNA2{StrandType:as}$” was 27.5%.
In turn, “RNA1{r(C)p.r(G)p.m(C)p.r(C)p.r(C)p.m(C)p.r(C)p.r(C)p.r(U)p.m(C)p.r(A)p.r(A)p.r(G)p.r(C)p.m(U)p.r(A)p.r(C)p.r(C)p.r(G)p.r(T)p.r(T)}|RNA2{r(C)p.r(G)p.r(G)p.m(U)p.r(A)p.r(G)p.r(C)p.r(U)p.m(U)p.r(G)p.r(A)p.r(G)p.r(G)p.r(G)p.r(G)p.r(G)p.r(G)p.r(C)p.r(G)p.r(T)p.r(T)}$$$RNA1{StrandType:ss}|RNA2{StrandType:as}$” registered a target mRNA knockdown of 72%.
In turn, “RNA1{r(A)p.r(A)p.r(G)p.r(G)p.r(A)p.r(C)p.r(C)p.[fl2r](U)p.r(A)p.r(G)p.r(A)p.r(G)p.r(G)p.r(A)p.r(G)p.r(U)p.[fl2r](C)p.r(A)p.r(C)p.r(T)p.r(T)}|RNA2{r(G)p.[fl2r](U)p.r(G)p.r(A)p.r(C)p.r(U)p.r(C)p.r(C)p.r(U)p.r(C)p.[fl2r](U)p.r(A)p.r(G)p.r(G)p.r(U)p.r(C)p.r(C)p.r(U)p.r(U)p.r(T)p.r(T)}$$$RNA1{StrandType:ss}|RNA2{StrandType:as}$” yielded a target mRNA knockdown of 87%.
